From BindingDB's records for patent US12247004 (Oxford Drug Design, 2025) come the findings set out here.

In one assay the target is Isoleucine--tRNA ligase (Escherichia coli (strain K12), UniProt P00956). Nature of the assay: Enzyme Inhibition Assay.
A further assay concerns the target Leucine--tRNA ligase (Escherichia coli (strain K12), UniProt P07813). Nature of the assay: Enzyme Inhibition Assay.

Molecules are shown by their SMILES.

Leucine--tRNA ligase, sequence (P07813 whole entry): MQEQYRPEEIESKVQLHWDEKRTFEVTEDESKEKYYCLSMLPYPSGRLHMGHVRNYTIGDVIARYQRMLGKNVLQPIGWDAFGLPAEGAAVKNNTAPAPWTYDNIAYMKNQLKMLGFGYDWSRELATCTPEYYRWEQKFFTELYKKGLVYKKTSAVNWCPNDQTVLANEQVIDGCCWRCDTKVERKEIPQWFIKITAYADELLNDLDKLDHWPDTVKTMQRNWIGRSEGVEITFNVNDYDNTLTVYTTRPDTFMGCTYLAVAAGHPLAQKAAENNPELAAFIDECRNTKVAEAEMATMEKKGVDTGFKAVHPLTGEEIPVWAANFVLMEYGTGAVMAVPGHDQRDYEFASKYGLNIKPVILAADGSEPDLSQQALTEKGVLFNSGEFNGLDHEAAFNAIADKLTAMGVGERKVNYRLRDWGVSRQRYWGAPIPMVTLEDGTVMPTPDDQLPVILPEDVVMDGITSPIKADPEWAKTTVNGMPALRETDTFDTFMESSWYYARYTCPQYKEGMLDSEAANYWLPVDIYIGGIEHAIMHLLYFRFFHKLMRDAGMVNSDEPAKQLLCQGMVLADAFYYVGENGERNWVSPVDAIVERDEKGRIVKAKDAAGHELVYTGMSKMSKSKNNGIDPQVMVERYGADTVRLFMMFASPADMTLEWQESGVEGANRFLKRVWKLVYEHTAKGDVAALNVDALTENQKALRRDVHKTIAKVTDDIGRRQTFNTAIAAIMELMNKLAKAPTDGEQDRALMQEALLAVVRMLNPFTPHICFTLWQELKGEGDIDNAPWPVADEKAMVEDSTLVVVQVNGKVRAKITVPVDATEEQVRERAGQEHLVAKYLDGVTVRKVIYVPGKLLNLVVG
Isoleucine--tRNA ligase, sequence (P00956 whole entry): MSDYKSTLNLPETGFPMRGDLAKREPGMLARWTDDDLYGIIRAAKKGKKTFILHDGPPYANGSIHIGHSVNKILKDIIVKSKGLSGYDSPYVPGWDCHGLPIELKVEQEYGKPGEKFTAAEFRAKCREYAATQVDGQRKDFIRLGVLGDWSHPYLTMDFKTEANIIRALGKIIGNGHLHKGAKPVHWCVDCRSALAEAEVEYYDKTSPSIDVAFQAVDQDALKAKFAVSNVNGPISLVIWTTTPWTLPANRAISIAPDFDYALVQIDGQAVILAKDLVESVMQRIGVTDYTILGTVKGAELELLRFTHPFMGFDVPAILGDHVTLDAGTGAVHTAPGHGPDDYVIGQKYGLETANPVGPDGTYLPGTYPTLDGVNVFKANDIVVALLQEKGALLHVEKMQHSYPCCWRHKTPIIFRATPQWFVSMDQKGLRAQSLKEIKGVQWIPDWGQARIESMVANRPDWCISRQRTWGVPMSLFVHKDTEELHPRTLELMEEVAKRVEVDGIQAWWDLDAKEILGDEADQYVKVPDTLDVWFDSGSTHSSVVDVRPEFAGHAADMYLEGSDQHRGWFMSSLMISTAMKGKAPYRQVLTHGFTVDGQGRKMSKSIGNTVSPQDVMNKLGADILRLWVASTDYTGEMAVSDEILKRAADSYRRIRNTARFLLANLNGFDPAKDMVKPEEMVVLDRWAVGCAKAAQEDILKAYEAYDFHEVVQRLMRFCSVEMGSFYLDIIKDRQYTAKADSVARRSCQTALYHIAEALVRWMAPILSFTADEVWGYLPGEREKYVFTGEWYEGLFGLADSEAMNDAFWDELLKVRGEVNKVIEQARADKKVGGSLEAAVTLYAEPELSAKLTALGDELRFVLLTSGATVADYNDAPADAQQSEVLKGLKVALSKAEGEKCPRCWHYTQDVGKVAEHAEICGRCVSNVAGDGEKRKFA
Procedure for Isoleucine--tRNA ligase: Single Point Percentage InhibitionThe activity of the pathogenic aaRSs was monitored by measuring AMP production using the commercial kit AMP-Glo (Promega, Madison, USA).Ligand stock solutions were prepared in 100% DMSO at 10 mM concentration. An assay buffer consisting of 100 mM Tris HCl pH 7.6, 40 mM MgCl, 20 mM KCl and 150 mM NaCl was prepared in dH2O. […] A substrate solution was also prepared in assay buffer with 50 mM L-leucine, 10 mM ATP and 100 mg/mL tRNA.

By IC50 is commonly meant the midpoint of a concentration-inhibition curve. As for `CC[C@H](C)[C@H](N)C(=O)N=S(N)(=O)c1ccc2ccccc2c1` (some centres not stated) [US12247004, Compound ANASIA-030], the IC50 on Isoleucine--tRNA ligase was determined as 9.59 µM.

Compound `CC(C)C[C@H](N)C(=O)N=S(N)(=O)c1cc[nH]n1` (some centres not stated) [US12247004, Compound ANASIA-064] had an IC50 against Leucine--tRNA ligase of 2.17 µM.
